Tested on: P12-Ichikawa
Assay: cell viability relative to DMSO control; higher = less cytotoxic
Details: 48 h
Outline: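 Cells were incubated for 48 h at 37°C before CellTiter-Glo One luminescence was read. The cells were NOMO1 or SEM (500 cells/well) or P12-Ichikawa (1000 cells/well) leukemia cells, adapted for at least four passages in each medium and seeded in 1536-well plates (5 μl). Dosing used library compounds in DMSO applied by pin over 11 threefold points, 47 μM to 0.79 nM. Viability is the per-plate percentage of DMSO wells, with cell-free wells as background.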

[1] = HPLM + 10% dialyzed FBS, 0.000781 µM
[2] = HPLM + 10% dialyzed FBS, 0.00234 µM
[3] = HPLM + 10% dialyzed FBS, 0.00702 µM
[4] = HPLM + 10% dialyzed FBS, 0.0211 µM
[5] = HPLM + 10% dialyzed FBS, 0.0632 µM
[6] = HPLM + 10% dialyzed FBS, 0.19 µM
[7] = HPLM + 10% dialyzed FBS, 0.569 µM
[8] = HPLM + 10% dialyzed FBS, 1.71 µM
[9] = HPLM + 10% dialyzed FBS, 5.12 µM
[10] = HPLM + 10% dialyzed FBS, 15.4 µM
[11] = HPLM + 10% dialyzed FBS, 46.1 µM
[12] = RPMI 5 mM glucose + 10% FBS, 0.000781 µM
[13] = RPMI 5 mM glucose + 10% FBS, 0.00234 µM
[14] = RPMI 5 mM glucose + 10% FBS, 0.00702 µM
[15] = RPMI 5 mM glucose + 10% FBS, 0.0211 µM
[16] = RPMI 5 mM glucose + 10% FBS, 0.0632 µM
[17] = RPMI 5 mM glucose + 10% FBS, 0.19 µM
[18] = RPMI 5 mM glucose + 10% FBS, 0.569 µM
[19] = RPMI 5 mM glucose + 10% FBS, 1.71 µM
[20] = RPMI 5 mM glucose + 10% FBS, 5.12 µM
[21] = RPMI 5 mM glucose + 10% FBS, 15.4 µM
[22] = RPMI 5 mM glucose + 10% FBS, 46.1 µM
[23] = RPMI 5 mM glucose + 10% dialyzed FBS, 0.000781 µM
[24] = RPMI 5 mM glucose + 10% dialyzed FBS, 0.00234 µM
[25] = RPMI 5 mM glucose + 10% dialyzed FBS, 0.00702 µM
[26] = RPMI 5 mM glucose + 10% dialyzed FBS, 0.0211 µM
[27] = RPMI 5 mM glucose + 10% dialyzed FBS, 0.0632 µM
[28] = RPMI 5 mM glucose + 10% dialyzed FBS, 0.19 µM
[29] = RPMI 5 mM glucose + 10% dialyzed FBS, 0.569 µM
[30] = RPMI 5 mM glucose + 10% dialyzed FBS, 1.71 µM
[31] = RPMI 5 mM glucose + 10% dialyzed FBS, 5.12 µM
[32] = RPMI 5 mM glucose + 10% dialyzed FBS, 15.4 µM
[33] = RPMI 5 mM glucose + 10% dialyzed FBS, 46.1 µM

SMILES | cell viability [1] [%] | cell viability [2] [%] | cell viability [3] [%] | cell viability [4] [%] | cell viability [5] [%] | cell viability [6] [%] | cell viability [7] [%] | cell viability [8] [%] | cell viability [9] [%] | cell viability [10] [%] | cell viability [11] [%] | cell viability [12] [%] | cell viability [13] [%] | cell viability [14] [%] | cell viability [15] [%] | cell viability [16] [%] | cell viability [17] [%] | cell viability [18] [%] | cell viability [19] [%] | cell viability [20] [%] | cell viability [21] [%] | cell viability [22] [%] | cell viability [23] [%] | cell viability [24] [%] | cell viability [25] [%] | cell viability [26] [%] | cell viability [27] [%] | cell viability [28] [%] | cell viability [29] [%] | cell viability [30] [%] | cell viability [31] [%] | cell viability [32] [%] | cell viability [33] [%]
CC(C)C[C@H](CN)CC(=O)O | 111 | 106 | 106 | 109 | 106 | 103 | 101 | 102 | 95.7 | 94.2 | 93 | 99.4 | 105 | 102 | 96.2 | 101 | 99.3 | 93.6 | 96.1 | 92.3 | 91.5 | 95.6 | 103 | 102 | 107 | 106 | 97.1 | 96 | 98.9 | 96.6 | 95.7 | 97.9 | 98.4
C[C@@H]1CC[C@@]2(OC1)O[C@H]3C[C@H]4[C@@H]5C/C=C6/C[C@H](CC[C@]6(C)[C@H]5CC[C@]4(C)[C@H]3[C@@H]2C)O[C@@H]7O[C@H](CO)[C@@H](O[C@@H]8O[C@@H](C)[C@H](O)[C@@H](O)[C@H]8O)[C@H](O)[C@H]7O[C@@H]9O[C@@H](C)[C@H](O)[C@@H](O)[C@H]9O | 124 | 128 | 119 | 131 | 129 | 130 | 136 | 134 | 132 | 116 | 7.3 |  |  |  |  |  |  |  |  |  |  |  |  |  |  |  |  |  |  |  |  |  | 
CC1SC/2=C(C(O)=O)/C(=O)C3=CC(=C(C=C3N12)N4CCN(CC4)C\C5=C(C)\OC(=O)O5)F (stereo not drawn) | 134 | 122 | 121 | 124 | 125 | 123 | 119 | 117 | 113 | 112 | 102 |  |  |  |  |  |  |  |  |  |  |  |  |  |  |  |  |  |  |  |  |  | 
COc1cc2ncnc(-n3nc(-c4ccccn4)nc3N)c2cc1OC | 93.6 | 97.9 | 102 | 99.7 | 95.9 | 103 | 105 | 104 | 88.5 | 96 | 0.508 | 89.2 | 100 | 98.6 | 101 | 98 | 105 | 107 | 102 | 78 | 82.7 | 0.293 | 83.8 | 92.6 | 90 | 81.6 | 93.2 | 107 | 96.2 | 101 | 82.6 | 82.9 | 0.35
CCCCN(CCCC)CCC(O)c1cc2c(Cl)cc(Cl)cc2c2cc(C(F)(F)F)ccc12 (stereo not drawn) | 120 | 122 | 118 | 120 | 130 | 131 | 130 | 131 | 131 | 124 | 121 | 115 | 126 | 119 | 118 | 135 | 147 | 141 | 150 | 132 | 105 | 88.3 | 108 | 110 | 114 | 117 | 120 | 125 | 130 | 138 | 131 | 141 | 105
O=C1NC(=O)[C@@H](c2cn3c4c(cccc24)CCC3)[C@@H]1c1c[nH]c2ccccc12 | 99 | 96.4 | 103 | 98.7 | 105 | 103 | 93.8 | 56 | 23.3 | 20.7 | 18.5 | 93.1 | 111 | 102 | 107 | 107 | 102 | 90.9 | 48.4 | 11.9 | 17.9 | 14.3 | 105 | 105 | 99.9 | 111 | 117 | 113 | 109 | 78 | 34.6 | 30 | 33.1
Cc1ccc(C(C)(O)c2nc3ccccc3s2)c(C)c1 (stereo not drawn) | 97.8 | 110 | 103 | 108 | 106 | 114 | 82 | 109 | 79.4 | 37.5 | 10.2 | 91.2 | 105 | 107 | 111 | 100 | 107 | 91 | 113 | 70.8 | 51.2 | 8.46 | 95.5 | 103 | 102 | 111 | 111 | 98 | 101 | 108 | 79 | 63.9 | 13.2
Cc1c[nH]c(/C=C2\C(=O)Nc3ccccc32)c1CCC(=O)O | 109 | 107 | 111 | 108 | 101 | 111 | 97.2 | 96.5 | 79.2 | 76.5 | 79.8 | 111 | 108 | 115 | 122 | 103 | 118 | 95.2 | 93.1 | 67.2 | 65.8 | 65.7 | 122 | 118 | 123 | 127 | 105 | 106 | 94.7 | 92.4 | 71.7 | 67.3 | 68.7
C[C@H]1CN(C[C@@H](C)O1)CC(=O)NC2=CC=C3SC4=C(CC3=C2)C=CC=C4\C5=C\C(=O)\C=C(/O5)N6CCOCC6 | 91.6 | 113 | 73.7 | 110 | 110 | 123 | 116 | 108 | 107 | 80.3 | 51.1 | 97.8 | 113 | 66.9 | 125 | 110 | 120 | 114 | 124 | 109 | 95.8 | 49.8 | 94.7 | 119 | 86.3 | 116 | 120 | 122 | 128 | 118 | 121 | 88.1 | 48.9
